Literature values as cited in patent publication US7393954B2 (Reliable Biopharmaceutical Corporation, priority 2002, dated 2008).

Legend:
[1] = system: chronic lymphocytic leukemia; conditions: result in words
hairy cell leukemia = conditions: result in words

## OC[C@H]1O[C@@H](n2cnc3c2N=CNC[C@H]3O)C[C@@H]1O [Pentostatin]
[1]
  efficacy against chronic lymphocytic leukemia: effective
Hairy cell leukemia; interferon-refractory, approved agent
  efficacy in treatment of interferon-refractory hairy cell leukemia: highly effective
Hairy cell leukemia
  efficacy against hairy cell leukemia: effective
